Results taken from patent US8080370B2, “Screening method for prophylactic and/or therapeutic agent for disease accompanied by hepatitis C” (Osaka University, priority 2006, dated 2011).

System: SREBP-1c promoter
Experiment: SREBP-1c promoter dual luciferase reporter assay in HEK293T cells with RXRα/LXRα ligands
Assay type: cell-based, human
Conditions: ligand(s) in culture solution for 24 hours, firefly relative to Renilla luciferase
Text: A genome DNA fragment coding the SREBP-1c promoter region (located in residues −410 to +24 base region) from mouse genome was amplified, and the resulting fragment was inserted into KpnI and HindIII sites in pGL3-Basic (manufactured by Promega Corporation), to give pGL3-SREBP-1cPro (FIG. 4a).
Human embryonic kidney cells (HEK293T: cell expressing endogenous […] ) were transformed with the control plasmid coding pGL3-srebp-1cPro and Renilla luciferase (manufactured by Promega Corporation) and together with any one plasmid of (i) vacant plasmid, (ii) plasmid coding the HCV core protein, (iii) plasmid coding RXRα and LXRα, and (iv) plasmid coding RXRα, LXRα and the HCV core protein. The transformant obtained was cultivated in a culture solution containing a RXRα's ligand 9-cis-retinoic acid (9cisRA; product of Sigma Corporation), a LXRα's ligand 22(R)-hydroxycholesterol (22(R)HC), or both of them as additives for 24 hours, and then, the cells were collected; the luciferase activity of the cells was determined, similarly to (1) above, by using the dual luciferase reporter assay system (manufactured by Promega Corporation).

| Compound | SREBP-1c promoter activity by the HCV core protein (luciferase activity) |
| --- | --- |
| CC(C)CC[C@@H](O)[C@@H](C)[C@H]1CC[C@H]2[C@@H]3CC=C4C[C@@H](O)CC[C@]4(C)[C@H]3CC[C@]12C [22(R)-hydroxycholesterol] | increase in SREBP-1c promoter activity |
| 9-cis-retinoic acid | increase in SREBP-1c promoter activity |
